The source of these data is patent EP3483233A1, “LUBRICANT BASE OIL COMPOSITIONS OF MONO-UNSATURATED DIBASIC ACID ESTERS WITH BRANCHED ALCOHOLS” (ARKEMA FRANCE, priority 2017, dated 2019).

Common to all, as to assay type: physicochemical
Data set [1] in a line: Pour point and cloud point, cooling regime of ASTM D97. The following applies: for low temperature fluidity: result in words; for Cloud point, °C: visual inspection during the same run. On the procedure:
Pour points and cloud points were determined using the same thermal cooling regime, as instructed by ASTM D97. The sample sizes were 5 to 15 mL during the measurements.
Cloud points were determined during the same run by visual inspection of the sample appearance at low temperature. The samples were removed from the freezer every 3°C for visual inspection and, if cloudy, meniscus movement with inversion. The pour point resembled the last measurement, at which the meniscus boundary was still moving within 5 seconds of horizontal inversion. All samples were tested in duplicate.
In engine oils and hydraulic fluids, low temperature fluidity is primarily determined by pour points [ASTM D97]. Generally, pour points below -30°C are considered sufficient. Some polymer additives, e.g. "Pour Point Depressants" (PPD), are able to improve low temperature fluidity. […] Therefore, initially pour points and cloud points [ASTM D2500 "Standard Test Method for Cloud Point of Petroleum Products and Liquid Fuels"] of α-ω dibasic esters were evaluated and shown in Table 4.

Data set [2] can be described thus: Thin film test, volatile losses (500 µm oil film on steel coupon, forced-draft oven, gravimetric). The following applies: 500 µm thick films at 120°C. The text has this: (§1) The exact procedure, used here, has been described in detail by Stoncius, A. et al. in "Volatiles from Thin Film Degradation of Bio-based, Synthetic and Mineral Basestocks", published in Industrial Lubrication & Tribology, 2013, 65 (3) 209-215, 2013, Emerald Group Publishing Edition or by Brazinskiene, D. et al. in "Ester Basestock Vaporisation from Thin Oil Films", published in Lubrication Science, DOI: 10.1002/ls.1372, pp 1-17, 2017, Wiley Edition.
(§2) Briefly, an oil film of 500 µm thickness was coated on steel coupon and heated at given temperature for specific duration in a forced-draft oven. Afterwards, the volatile losses and insoluble residues were measured gravimetrically.
As discussed in the prior-art review, volatility can be successfully evaluated in a thin film test as described by Stoncius, A. et al. in "Volatiles from Thin Film Degradation of Bio-based, Synthetic and Mineral Basestocks" published in Industrial Lubrication & Tribology, 2013, 65 (3) 209-215, Emerald Group Publishing Edition or by Brazinskiene, D. et al. in "Ester Basestock Vaporisation from Thin Oil Films" published in Lubrication Science, DOI: 10.1002/ls.1372, pp 1-17, 2017, Wiley Edition. This thin-film method is much better suited for hydraulic fluid applications than NOACK or other tests, which employ 250°C or similar temperatures, related to engine oil applications. Also, the above method accounts for longer term decomposition reactions due to exposure to metal surfaces and oxidation, which is prevalent in hydraulic applications. Therefore, using the thin-film method short-term vapor losses were measured after 16 hrs and decomposition trends were compared after 36 hrs of testing. Heating temperature of 120°C was selected to compare thin films of α,ω dibasic esters with commercial basestocks. Table 5. Volatile emissions, % w/w from 500 µm thick films of α-ω dibasic esters and commercial basestocks at 120°C

Data set [3] is described as follows: Thin film test, oxidative stability (time to insoluble residues and to solidification). The settings on record: 500 µm thick films at 120°C; for Vapor loss at solidification: at the duration of full film solidification.
Description: as §1, §2
Therefore, thin films of commercial basestocks and α-ω dibasic esters were compared by exposing their thin films to 120°C as described by Stoncius, A. et al. in "Volatiles from Thin Film Degradation of Bio-based, Synthetic and Mineral Basestocks" published in Industrial Lubrication & Tribology, 2013, 65 (3), 209-215, Emerald Group Publishing Edition or by Brazinskiene, D. et al. in "Ester Basestock Vaporisation from Thin Oil Films" published in Lubrication Science, DOI: 10.1002/ls.1372, pp 1-17, 2017, Wiley Edition.
The thin-film method determines how resistant oil is against formation of insoluble residues during oxidation. Degradation durations until initial formation of solid residues and complete solidification directly relate to oxidative stability.

The nature of data set [4]: Kinematic viscosity with capillary Cannon-Fenske viscometers; Viscosity Index calculated per ASTM D2270. The following applies: for Viscosity Index: calculated per ASTM D2270 from viscosities at 40°C and 100°C; for Viscosity, mm^2/s at 40°C: kinematic viscosity at 40°C; for Viscosity, mm^2/s at 100°C: kinematic viscosity at 100°C. On the procedure: Kinematic viscosities at 40°C and 100°C were measured using capillary Cannon-Fenske viscometers per ASTM […]. Viscosity Index (the value, describing the rate of thinning with increasing temperature) was calculated per ASTM D2270.

Values joined by “and” are separate entries in the source; they are usually repeats but may differ in a detail not shown here. Identical values can stand only once.

Take “1,18-di(1-methylheptyl) octadec-9-enedioate [17U18]”: in data set [1], the “Pour point, °C” value was -21 °C; the low temperature fluidity entry is on record as “much poorer low temperature fluidity”; the “Cloud point, °C” value is -18 °C. In addition, in data set [2], the “Volatile emissions, 16 hrs” value is on record as 0.87 % w/w and the “Volatile emissions, 36 hrs” value is 7 % w/w. Also, in data set [3], the Full solidification observed worked out at 463 h, the Initial residues observed amounted to 343 h and the “Vapor loss at solidification” value is 63% w/w. In addition, in data set [4], the “Viscosity Index” value was 205; the “Viscosity, mm^2/s at 40°C” value is 21.2 mm^2/s; the “Viscosity, mm^2/s at 100°C” value was 5.35 mm^2/s.

With “1,18-di(3,3,5-trimethylhexyl) octadec-9-enedioate [9U18]”, in data set [1], the “Pour point, °C” value was -33 °C and the “Cloud point, °C” value was -33 °C. In data set [2], the “Volatile emissions, 16 hrs” value amounted to 5 % w/w and the “Volatile emissions, 36 hrs” value turned out to be 13.9 % w/w. In data set [3], the Full solidification observed was 367 h, the Initial residues observed came out at 344 h and the “Vapor loss at solidification” value was 71% w/w. Moreover, in data set [4], the “Viscosity Index” value is 202; the “Viscosity, mm^2/s at 40°C” value was 28.8 mm^2/s; the “Viscosity, mm^2/s at 100°C” value is listed as 6.7 mm^2/s.

Regarding “1,18-di(3-methylbutyl) octadec-9-enedioate [5U18]”, in data set [1], the “Pour point, °C” value is -24 °C and the “Cloud point, °C” value was -24 °C. Moreover, in data set [2], the “Volatile emissions, 16 hrs” value is reported as 12.6 % w/w and the “Volatile emissions, 36 hrs” value came out at 23.7 % w/w. Moreover, in data set [3], the Full solidification observed was determined as 225 h, the Initial residues observed worked out at 152 h and the “Vapor loss at solidification” value came to 66% w/w. For the same molecule, in data set [4], the “Viscosity Index” value is reported as 196; the “Viscosity, mm^2/s at 40°C” value was 12.93 mm^2/s; the “Viscosity, mm^2/s at 100°C” value is reported as 3.73 mm^2/s.

For “1-(3,7,11,15-tetra methyl-2-hexadecenyl) - 18-(2-ethylhexyl) octadec-9-enedioate [2026U18]”, in data set [1], the “Pour point, °C” value is -66 °C and the “Cloud point, °C” value was -63 °C. Also, in data set [2], the “Volatile emissions, 16 hrs” value stood at 6.7 % w/w and the “Volatile emissions, 36 hrs” value is listed as 13.4 % w/w. Also, in data set [3], the Full solidification observed was found to be 176 h, the Initial residues observed turned out to be 152 h and the “Vapor loss at solidification” value is 39% w/w. In data set [4], the “Viscosity Index” value was 175; the “Viscosity, mm^2/s at 40°C” value is reported as 42.54 mm^2/s; the “Viscosity, mm^2/s at 100°C” value is 8.3 mm^2/s.

For “1,18-dimethyl octadec-9-enedioate [1U18]”, in data set [1], the “Pour point, °C” value was “> +15 °C”; the low temperature fluidity entry was “much poorer low temperature fluidity”; the “Cloud point, °C” value is “> +15 °C”. Besides, in data set [2], the “Volatile emissions, 16 hrs” value is given as 9.4 % w/w and the “Volatile emissions, 36 hrs” value is reported as 25.6 % w/w. In data set [3], this molecule came in with a Full solidification observed of 344 h and an Initial residues observed of 248 h. In data set [4], the “Viscosity Index” value is 204; the “Viscosity, mm^2/s at 40°C” value was 8.68 mm^2/s; the “Viscosity, mm^2/s at 100°C” value was 2.85 mm^2/s.

Regarding “1,18-di(2-propylheptyl) octadec-9-enedioate [37U18]”, in data set [1], the “Pour point, °C” value is -51 °C and the “Cloud point, °C” value was -51 °C. Moreover, in data set [2], the “Volatile emissions, 16 hrs” value was 3.5 % w/w and the “Volatile emissions, 36 hrs” value turned out to be 10.6 % w/w. In data set [3], the Full solidification observed was found to be 324 h, the Initial residues observed amounted to 248 h and the “Vapor loss at solidification” value is recorded as 54% w/w. In data set [4], the “Viscosity Index” value is given as 174; the “Viscosity, mm^2/s at 40°C” value was 28.7 mm^2/s and 28.74 mm^2/s; the “Viscosity, mm^2/s at 100°C” value was 6.39 mm^2/s.

For “1,18-di(2-butyloctyl) octadec-9-enedioate [48U18]”, in data set [1], the “Pour point, °C” value was -54 °C and the “Cloud point, °C” value is -48 °C. In data set [2], the “Volatile emissions, 16 hrs” value came out at 1.7 % w/w and the “Volatile emissions, 36 hrs” value worked out at 9.8 % w/w. In data set [3], the Full solidification observed amounted to 320 h, the Initial residues observed was found to be 248 h and the “Vapor loss at solidification” value turned out to be 47% w/w. Further, in data set [4], the “Viscosity Index” value is 163; the “Viscosity, mm^2/s at 40°C” value is listed as 36.09 mm^2/s; the “Viscosity, mm^2/s at 100°C” value is reported as 7.09 mm^2/s.

“1,9-di(2-ethylhexyl) nonanedioate [26S9, reference compound]”: in data set [1], the “Pour point, °C” value is -57 °C and the “Cloud point, °C” value was -38 °C. Moreover, in data set [2], the “Volatile emissions, 16 hrs” value turned out to be 2.65 % w/w and the “Volatile emissions, 36 hrs” value was determined as 4.7 % w/w. In data set [3], the Full solidification observed was 553 h, the Initial residues observed was 367 h and the “Vapor loss at solidification” value is 92% w/w. For the same molecule, in data set [4], the “Viscosity Index” value was 111; the “Viscosity, mm^2/s at 40°C” value is 10.5 mm^2/s; the “Viscosity, mm^2/s at 100°C” value was 2.8 mm^2/s.

As to `CCCCCCC(CCCC)COC(=O)CCCCCCCC=CCCCCCCCC(=O)OCC(CC)CCCC` (stereo not shown) [4826U18, 1-(2-butyloctyl)-18-(2-ethylhexyl)octadec-9-enedioate], in data set [1], the “Pour point, °C” value was -51 °C and the “Cloud point, °C” value is -51 °C. Moreover, in data set [2], the “Volatile emissions, 16 hrs” value came to 3.8 % w/w and the “Volatile emissions, 36 hrs” value stood at 10.1 % w/w. For the same molecule, in data set [3], the Full solidification observed is 325 h, the Initial residues observed amounted to 248 h and the “Vapor loss at solidification” value worked out at 57% w/w. In addition, in data set [4], the “Viscosity Index” value is 205; the “Viscosity, mm^2/s at 40°C” value is recorded as 28.97 mm^2/s; the “Viscosity, mm^2/s at 100°C” value is reported as 6.78 mm^2/s.

With `CCCCCCC(C)OC(=O)CCCCCCCCCCCCCCCCC(=O)OC(C)CCCCCC` (stereo not shown) [17S18, 1,18-di(1-methylheptyl) octadecanedioate, reference compound], in data set [1], the “Pour point, °C” value was “+9 °C”; the low temperature fluidity entry is given as “very problematic low temperature fluidity”; the “Cloud point, °C” value is “+9 °C”. For the same molecule, in data set [4], the “Viscosity Index” value is given as 180; the “Viscosity, mm^2/s at 40°C” value was 22.7 mm^2/s; the “Viscosity, mm^2/s at 100°C” value was 5.31 mm^2/s.

For `CCCCC(CC)COC(=O)CCCCCCCCCCCCCCCCC(=O)OCC(CC)CCCC` (stereo not shown) [26S18, 1,18-di(2-ethylhexyl) octadecanedioate, reference compound], in data set [1], the “Pour point, °C” value was -9 °C; the low temperature fluidity entry is given as “very problematic low temperature fluidity”; the “Cloud point, °C” value is -9 °C. In data set [4], the “Viscosity Index” value is recorded as 194; the “Viscosity, mm^2/s at 40°C” value is 23.9 mm^2/s; the “Viscosity, mm^2/s at 100°C” value is given as 5.71 mm^2/s.
